Data taken from US6849576B2, “Plant-activating agent” (Kao Corporation, priority 2000, dated 2005).

These compounds were tested on liverwort callus cells (assay: Reproduction of green cells: liverwort callus cultivation, fresh weight at 10th day). Conditions: liverwort callus fresh weight at 10th day (240 hours); relative value, control area = 100; concentrations (ppm) as in Table 7.
Assay type: cell-based, liverwort (Harchantia polymorpha L.)
Method: (§1) In case of a unicellular organism, an individual of this organism can be used itself as a green cell. […] When chlorella is used, a test substance acting as a plant-activating agent is added to an inorganic salt medium for chlorella (test area), and the number of cells (cells/ml) when cultivation is conducted for a certain period can be compared with the number of cells (cells/ml) in the non-added system cultivated under the same condition (control area), for calculation. Further, cells in the form of callus can also be used. As the callus, a liverwort (Harchantia polymorpha L.) callus may be exemplified. When a callus is used, the test substance acting as a plant-activating agent is added to e.g. a sterilized medium for calluses (test area), and the weight of callus when cultivation is conducted for a certain period can be compared with the weight of callus of the non-added system cultivated under the same condition (control area), for calculation. In any case, the concentration of the test substance in the test area is not limited but suitably from 0.1 to 1000 ppm in terms of effective components.
100 ml of the medium (MSK2 medium) for liverworts were placed into a 500-ml Erlenmeyer flask, and the flask was capped with a silicon cap having its ventilative property and placed into an autoclave (at a high temperature, under a high pressure, and a sterilized oven) to sterilize the medium (for 20 minutes). Herein, the substance acting as the plant-activating agent was added in a concentration shown in Table 7 into a culturing solution in the test area. After sterilization, the temperature of the medium was returned to a normal temperature. 2 ml of liverwort callus cells under a steady state, which had been sub-cultivated previously, were sucked up by a 2-ml Komagome pipette (measuring pipet) and incubated to the sterilized medium. These operations are conducted in a clean bench when sterilized condition is necessary. Cultivation is carried out in a shaking incubator rotating at 110 rpm at 23° C. under continuous illumination (with illuminance of 10 klx.) with carbon dioxide and humidity under natural conditions. Tenth day (after 240 hours) after starting the cultivation, the whole culturing solution in each area was filtrated under suction, and the fresh weight (raw weight) (g) of the callus cell was measured. This was made as the amount in reproduction of green cells, and the improved degree in reproduction of green cells was measured by the above-described formula.

Point of comparison: O=C([O-])CN(CCN(CC(=O)[O-])CC(=O)[O-])CC(=O)[O-].[Na+].[Na+].[Na+].[Na+] [Comparative product 5-3, EDTA-4Na, reference compound], “Improved degree in reproduction of green cells” value (shortened to “Improved degree in reproduction”) 90. Against it:
- Vitamin B12 [Inventive product 5-19] — higher, 108
- POE(1) stearyl ether [Inventive product 5-11] — higher, 133
- Stearic acid diglyceride [Inventive product 5-13] — higher, 126
- Citric acid monostearate [Inventive product 5-7] — higher, 135
- CCCCCCCCCCCCCCCCCC(=O)OCC(CO)(CO)CO [Inventive product 5-14, Pentaerythritol monostearate] — higher, 108
- N[C@@H](CCC(=O)[O-])C(=O)[O-].[Na+].[Na+] [Inventive product 5-4, Sodium glutamate] — higher, 105
- CC(C)C[C@H](N)C(=O)O [Inventive product 5-20, L-leucine] — higher, 110
- CCCCCCCCCCCCCCCCCCOC(=O)CCCCCCCCCCCCCCCCC [Inventive product 5-10, Stearyl sterate] — higher, 125
- O=S(=O)([O-])CCO.[Na+] [Inventive product 5-3, Sodium isethionate] — higher, 115
- POE(20) sorbitan oleate [Comparative product 5-1, reference compound] — lower, 72
- CCCCCCCC/C=C\CCCCCCCCNC(=O)CC(O)(CC(=O)O)C(=O)O (stereo not drawn) [Inventive product 5-8, Citric acid oleyl amide] — higher, 125
- Stearic acid monoglyceride [Inventive product 5-23] — higher, 118
- CCCCCCCCCCCCCCCCCCO [Inventive product 5-5, Stearyl alcohol] — higher, 140
- CCCCCCCCCCCCCCCCCCOC(=O)C(O)CO (stereo not drawn) [Inventive product 5-17, Glyceric acid stearyl ester] — higher, 108
- O=C(O)C(O)C(O)C(=O)O (stereo not drawn) [Inventive product 5-21, Tartaric acid] — higher, 110
- CCCCCCCCCCCCCCCCCCOCCCCCCCCCCCCCCCCCC [Inventive product 5-9, Distearyl ether] — higher, 135
- CCCCCCCCCCCCCCCC(=O)O [Inventive product 5-2, Palmitic acid] — higher, 110
- O=C([O-])CCC(=O)[O-].[Na+].[Na+] [Comparative product 5-2, Sodium succinate, reference compound] — higher, 91
- Cc1ncc(CO)c(CO)c1O [Inventive product 5-18, Vitamin B6] — higher, 107
- CCCCCCCCCCCCCCCCCC(=O)O [Inventive product 5-1, Stearic acid] — higher, 120
- O=C(O)CCCC[C@@H]1SC[C@@H]2NC(=O)N[C@@H]21 [Inventive product 5-24, Biotin] — higher, 106

The compounds below were run on Chlorella vulgaris (assay: Reproduction of green cells: chlorella cultivation, cell count at 8th day). Conditions: chlorella cell number at 8th day (192 hours); relative value, control area = 100; concentrations (ppm) as in Table 1.
Assay type: cell-based
Method: as §1
Herein, the substance acting as the plant-activating agent has been added in a concentration of 10 ppm in terms of effective components into a culturing solution in the test area. This substance is not added into the control area. After sterilization, the temperature of the medium is returned to a normal temperature. The number of Chlorella vulgaris which has been sub-cultivated previously is counted under a microscope using a blood cell counting chamber of Thoma, and chlorella is added to the sterilized medium so as to have a concentration of 1.0×10^5 (cells/ml). These operations are conducted in a clean bench when the sterilized condition is necessary. Cultivation is carried out in a shaking incubator rotating at 110 rpm at 23° C. under continuous illumination (with illuminance of 10 klx.) with carbon dioxide and humidity under natural conditions.
This measurement is repeated five times in each area, and the average values (P0, P1) are made as the number of chlorella after cultivation.

Point of comparison: “POE(20) sorbitan oleate [Comparative product 1-1, reference compound]”, “Improved degree in reproduction” value 85. Against it:
- O=C([O-])CN(CCN(CC(=O)[O-])CC(=O)[O-])CC(=O)[O-].[Na+].[Na+].[Na+].[Na+] [Comparative product 1-3, EDTA-4Na, reference compound] — higher, 92
- Stearic acid diglyceride [Inventive product 1-13] — higher, 140
- Cc1ncc(CO)c(CO)c1O [Inventive product 1-18, Vitamin B6] — higher, 118
- Citric acid monooleyl axnide [Inventive product 1-8] — higher, 148
- Stearic acid monoglyceride [Inventive product 1-23] — higher, 140
- O=C([O-])CCC(=O)[O-].[Na+].[Na+] [Comparative product 1-2, Sodium succinate, reference compound] — higher, 90
- POE(1) stearyl ether [Inventive product 1-11] — higher, 160
- Vitamin B12 [Inventive product 1-19] — higher, 110

Same assay, conditions: chlorella cell number at 8th day (192 hours); relative value, control area = 100; concentrations (ppm) as in Table 2

Point of comparison: “POE(20) sorbitan oleate [Comparative product 2-1, reference compound]”, “Improved degree in reproduction” value 80. Against it:
- Cc1ncc(CO)c(CO)c1O [Inventive product 2-16, Vitamin B6] — higher, 122
- O=C([O-])CN(CCN(CC(=O)[O-])CC(=O)[O-])CC(=O)[O-].[Na+].[Na+].[Na+].[Na+] [Comparative product 2-3, EDTA-4Na, reference compound] — higher, 90
- Stearic acid diglyceride [Inventive product 2-11] — higher, 136
- CCCCCCCCCCCCCCCCCC(=O)O [Inventive product 2-1, Stearyl acid] — higher, 156
- O=C([O-])CCC(=O)[O-].[Na+].[Na+] [Comparative product 2-2, Sodium succinate, reference compound] — higher, 92
- POE(1) stearyl ether [Inventive product 2-9] — higher, 153
- Vitamin B12 [Inventive product 2-17] — higher, 118
